Values joined by “and” are separate entries in the source; they are usually repeats but may differ in a detail not shown here. Equal entries are not always repeated.
What was measured:
EGRF = biological target: T1, EGRF (Homo sapiens, UniProt P00533); assay: Kinase inhibition, 33P radiometric assay (Millipore Kinase Profiler); format: biochemical; conditions: EGRF (text: EGFR)
T1 construct: purchased Millipore (Kinase Profiler service)
Protocol: (§1) Kinase inhibitory potency of SKLB-850 against a number of selected kinases were measured with gold-standard^33 P radio-labeled technology. […] For the remaining 11 kinases tested, SKLB-850 exibited very weak or no activity (IC50 > 10 μM).
(§2) The IC50 values of SKLB-850 for kinase inhibition in vitro were measured by radiometric assays conducted by Kinase Profiler service provided by Millipore as described in Pan’s study.

FAK = biological target: T2, FAK (Homo sapiens, UniProt Q05397); assay: as above; format: biochemical
T2 construct: purchased Millipore (Kinase Profiler service)
Protocol: as §1, §2

GRK1 = biological target: T3, GRK1 (Homo sapiens, UniProt Q15835); assay: as above; format: biochemical
T3 construct: purchased Millipore (Kinase Profiler service)
T3 sequence (Q15835 whole entry): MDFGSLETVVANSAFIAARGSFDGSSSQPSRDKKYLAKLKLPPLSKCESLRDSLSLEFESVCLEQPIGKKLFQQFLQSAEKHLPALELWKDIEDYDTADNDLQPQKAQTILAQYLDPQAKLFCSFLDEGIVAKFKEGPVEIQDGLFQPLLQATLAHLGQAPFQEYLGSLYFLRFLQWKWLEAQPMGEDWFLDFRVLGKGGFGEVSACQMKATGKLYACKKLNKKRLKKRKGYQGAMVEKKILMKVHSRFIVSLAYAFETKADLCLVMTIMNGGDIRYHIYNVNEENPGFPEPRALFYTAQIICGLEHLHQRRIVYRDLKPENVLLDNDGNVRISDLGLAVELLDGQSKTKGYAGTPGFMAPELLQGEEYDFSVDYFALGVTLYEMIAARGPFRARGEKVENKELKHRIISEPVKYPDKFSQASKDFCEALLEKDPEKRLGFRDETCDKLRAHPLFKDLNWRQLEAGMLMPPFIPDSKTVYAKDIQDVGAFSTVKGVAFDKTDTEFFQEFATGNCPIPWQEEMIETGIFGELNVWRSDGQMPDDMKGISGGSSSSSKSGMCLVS
Protocol: as §1, §2

GSK3β = biological target: T4, GSK3β (Homo sapiens, UniProt P49841); assay: as above; format: biochemical
T4 construct: purchased Millipore (Kinase Profiler service)
Protocol: as §1, §2

JAK2 = biological target: T5, JAK2 (Homo sapiens, UniProt O60674); assay: as above; format: biochemical
T5 construct: purchased Millipore (Kinase Profiler service)
T5 sequence (O60674 whole entry): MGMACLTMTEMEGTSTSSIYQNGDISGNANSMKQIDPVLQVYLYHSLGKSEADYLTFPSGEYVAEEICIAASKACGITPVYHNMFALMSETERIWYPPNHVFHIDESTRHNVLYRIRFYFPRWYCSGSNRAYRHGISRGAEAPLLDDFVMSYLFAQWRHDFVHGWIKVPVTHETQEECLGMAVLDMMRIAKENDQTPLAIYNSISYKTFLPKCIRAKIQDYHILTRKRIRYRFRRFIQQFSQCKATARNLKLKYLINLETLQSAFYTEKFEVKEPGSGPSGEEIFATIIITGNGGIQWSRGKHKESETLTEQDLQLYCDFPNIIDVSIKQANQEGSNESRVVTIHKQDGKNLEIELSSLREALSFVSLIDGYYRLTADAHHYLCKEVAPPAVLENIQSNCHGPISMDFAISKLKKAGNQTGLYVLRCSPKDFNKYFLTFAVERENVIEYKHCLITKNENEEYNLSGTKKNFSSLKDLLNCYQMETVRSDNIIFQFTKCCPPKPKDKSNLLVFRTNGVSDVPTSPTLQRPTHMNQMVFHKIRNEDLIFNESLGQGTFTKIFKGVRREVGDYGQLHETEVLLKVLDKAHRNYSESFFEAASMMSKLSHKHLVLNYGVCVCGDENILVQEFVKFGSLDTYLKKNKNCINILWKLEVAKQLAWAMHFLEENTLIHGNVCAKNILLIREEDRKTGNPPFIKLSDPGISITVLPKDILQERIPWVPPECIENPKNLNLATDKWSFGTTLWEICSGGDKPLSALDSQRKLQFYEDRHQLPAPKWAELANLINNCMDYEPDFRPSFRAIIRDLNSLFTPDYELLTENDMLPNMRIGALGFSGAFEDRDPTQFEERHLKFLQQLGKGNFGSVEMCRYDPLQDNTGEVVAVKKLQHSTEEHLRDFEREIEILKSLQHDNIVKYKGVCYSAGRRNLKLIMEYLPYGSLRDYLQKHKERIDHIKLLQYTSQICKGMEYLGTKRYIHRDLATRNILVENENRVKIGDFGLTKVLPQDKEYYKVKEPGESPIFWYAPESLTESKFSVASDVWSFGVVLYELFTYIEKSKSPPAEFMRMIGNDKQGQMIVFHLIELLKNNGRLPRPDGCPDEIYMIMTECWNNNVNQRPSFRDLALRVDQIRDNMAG
Protocol: as §1, §2

PKBα = biological target: T6, PKBα (Homo sapiens, UniProt P31749); assay: as above; format: biochemical
T6 construct: purchased Millipore (Kinase Profiler service)
T6 sequence (P31749 whole entry): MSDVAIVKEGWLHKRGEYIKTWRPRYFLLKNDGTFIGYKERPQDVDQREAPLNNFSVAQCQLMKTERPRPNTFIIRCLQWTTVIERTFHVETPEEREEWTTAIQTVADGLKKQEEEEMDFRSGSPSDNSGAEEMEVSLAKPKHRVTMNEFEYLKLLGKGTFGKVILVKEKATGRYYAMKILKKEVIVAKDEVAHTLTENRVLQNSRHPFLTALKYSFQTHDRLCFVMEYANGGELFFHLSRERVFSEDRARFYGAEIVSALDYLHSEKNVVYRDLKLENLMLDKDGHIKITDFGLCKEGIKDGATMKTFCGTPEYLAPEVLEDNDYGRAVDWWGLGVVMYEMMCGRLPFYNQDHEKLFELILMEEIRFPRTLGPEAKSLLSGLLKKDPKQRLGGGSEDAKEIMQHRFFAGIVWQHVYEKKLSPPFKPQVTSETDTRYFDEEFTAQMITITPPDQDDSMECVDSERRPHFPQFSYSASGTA
Protocol: as §1, §2

PKCα = biological target: T7, PKCα (Homo sapiens, UniProt P17252); assay: as above; format: biochemical
T7 construct: purchased Millipore (Kinase Profiler service)
Protocol: as §1, §2

Pim-1 = biological target: T8, Pim-1 (Homo sapiens, UniProt P11309); assay: as above; format: biochemical
T8 construct: purchased Millipore (Kinase Profiler service)
T8 sequence (P11309 whole entry): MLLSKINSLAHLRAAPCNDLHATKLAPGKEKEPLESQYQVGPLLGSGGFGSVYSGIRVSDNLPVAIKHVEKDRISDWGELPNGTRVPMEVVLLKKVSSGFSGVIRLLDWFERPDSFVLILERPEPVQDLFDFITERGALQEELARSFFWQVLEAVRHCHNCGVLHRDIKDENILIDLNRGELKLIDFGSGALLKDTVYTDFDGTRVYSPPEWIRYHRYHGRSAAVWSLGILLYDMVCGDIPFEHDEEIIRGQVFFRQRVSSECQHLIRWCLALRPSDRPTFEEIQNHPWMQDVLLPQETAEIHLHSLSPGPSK
Protocol: as §1, §2

Pim-2 = biological target: T9, Pim-2 (Homo sapiens, UniProt Q9P1W9); assay: as above; format: biochemical
T9 construct: purchased Millipore (Kinase Profiler service)
T9 sequence (Q9P1W9 whole entry): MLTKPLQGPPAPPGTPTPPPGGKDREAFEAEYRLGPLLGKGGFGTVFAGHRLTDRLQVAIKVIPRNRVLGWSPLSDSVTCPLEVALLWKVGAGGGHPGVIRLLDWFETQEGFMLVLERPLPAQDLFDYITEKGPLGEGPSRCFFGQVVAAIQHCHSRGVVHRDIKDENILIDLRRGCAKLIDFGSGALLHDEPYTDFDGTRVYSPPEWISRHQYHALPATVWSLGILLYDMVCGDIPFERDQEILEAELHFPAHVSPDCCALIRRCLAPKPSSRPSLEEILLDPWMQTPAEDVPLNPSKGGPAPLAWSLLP
Protocol: as §1, §2

A549 = assay: MTT anti-viability assay; format: cell-based; conditions: A549, Human non-small cell lung cancer cells, 72 hours
Protocol: (§3) In vitro anti-viability activities of SKLB-850 against various tumor cell lines were measured using the MTT method.
(§4) Human cancer cell lines Ramos-ZHL, HBL-1, SuDHL-6, LY-10, LY-1, RAJI, MDA-MB-231, SW1990, SMMC7721, MCF-7, CFPAC-1, HPAC, A549 and H358 were obtained from American Type Culture Collection (ATCC). All tumor cell lines were maintained according to the ATCC procedures and passaged for less than 6 months after receipt for resuscitation. These cells were cultured in RPMI-1640 supplemented with 10% fetal bovine serum (FBS).
(§5) Cell proliferation was measured using the MTT assay as previously described. Various cells including were treated with indicated concentrations of SKLB-850 for 72 hours. R788 (Selleck.cn) was served as a positive control. Each assay was replicated 3 times.

CFPAC-1 = assay: MTT anti-viability assay; format: cell-based; conditions: CFPAC-1, Human pancreatic cancer cell, 72 hours
Protocol: as §3, §4, §5

H358 = assay: MTT anti-viability assay; format: cell-based; conditions: 72 hours
Protocol: as §3, §4, §5

HBL-1 = assay: MTT anti-viability assay; format: cell-based; conditions: HBL1, HBL-1, Human diffuse large B cell lymphoma, 72 hours
Protocol: as §3, §4, §5

HPAC = assay: MTT anti-viability assay; format: cell-based; conditions: Human pancreatic cancer cell, 72 hours
Protocol: as §3, §4, §5

LY-10 = assay: MTT anti-viability assay; format: cell-based; conditions: LY10, LY-10, Human diffuse large B cell lymphoma, 72 hours
Protocol: as §3, §4, §5

LY-1 = assay: MTT anti-viability assay; format: cell-based; conditions: Ly1, LY-1, Human diffuse large B cell lymphoma, 72 hours
Protocol: as §3, §4, §5

MCF-7 = assay: MTT anti-viability assay; format: cell-based; conditions: MCF7, MCF-7, Human breast cancer cell, 72 hours
Protocol: as §3, §4, §5

MDA-MB-231 = assay: MTT anti-viability assay; format: cell-based; conditions: MDA-MB-231, Human breast cancer cell, 72 hours
Protocol: as §3, §4, §5

RAJI = assay: MTT anti-viability assay; format: cell-based; conditions: Human B cell lymphoma, 72 hours
Protocol: as §3, §4, §5

Ramos-ZHL = assay: MTT anti-viability assay; format: cell-based; conditions: Human B cell lymphoma, 72 hours
Protocol: as §3, §4, §5

SMMC7721 = assay: MTT anti-viability assay; format: cell-based; conditions: SMMC-7721, SMMC7721, Human hepatocellular carcinoma cell, 72 hours
Protocol: as §3, §4, §5

SW1990 = assay: MTT anti-viability assay; format: cell-based; conditions: SW1990, Human pancreatic cancer cell, 72 hours
Protocol: as §3, §4, §5

SuDHL-6 = assay: MTT anti-viability assay; format: cell-based; conditions: SU-DHL-6, SuDHL-6, Human follicular B cell lymphoma, 72 hours
Protocol: as §3, §4, §5

[1] = system: Ki67 and CD20 in Ramos tumor tissues; assay: Immunohistochemistry of Ki67 and CD20 in tumor tissues from the Ramos model; format: in vivo, NOD/SCID mice; conditions: mouse tumor tissues
Source text: The ability of inducing apoptosis of SKLB-850 in tumor tissues was examined by TUNEL. […] We then examined apoptotic tumor cells in B-cell lymphoma samples from BCL patients after SKLB-850 treatment by FCM. As shown in Figure 6C and 6F, SKLB-850 induced cell apoptosis (14.10 ± 4.04%), and R788 had the same effect but relatively weak (7.60 ± 0.52%). To better understand the mechanism of antitumor activities in vivo, Ki67 and CD20 in mouse tumor tissues were detected by immunohischemistry; Ki67 was a marker of proliferation in the diagnosis of tumors and CD20 was highly expressed in B cell lymphomas.
Paraffin sections from each group were stained with hematoxylineosin (H&E). For immunohistochemistry studies, tumor tissues in the Ramos model were performed and the following antibodies were used: phospho-Src (Cell Signaling Technology, 1:100), phospho-FAK (Cell Signaling Technology, 1:100), phospho-Stat3 (Cell Signaling Technology, 1:100), NF-κB p-65(Cell Signaling Technology, 1:100) and phospho-Syk (Cell Signaling Technology, 1:100). Additionally, Rat anti-mouse CD31 antibody (BD Biosciences, USA) and anti-Ki67 antibody (Gene Tech) were used to determine vessel density and cell proliferation following the manufacturer’s protocol, respectively. A DAKO polymer secondary antibody system (Dako Envision 1K4007) was used for secondary detection. […]

T1 sequence (P00533 25-1210): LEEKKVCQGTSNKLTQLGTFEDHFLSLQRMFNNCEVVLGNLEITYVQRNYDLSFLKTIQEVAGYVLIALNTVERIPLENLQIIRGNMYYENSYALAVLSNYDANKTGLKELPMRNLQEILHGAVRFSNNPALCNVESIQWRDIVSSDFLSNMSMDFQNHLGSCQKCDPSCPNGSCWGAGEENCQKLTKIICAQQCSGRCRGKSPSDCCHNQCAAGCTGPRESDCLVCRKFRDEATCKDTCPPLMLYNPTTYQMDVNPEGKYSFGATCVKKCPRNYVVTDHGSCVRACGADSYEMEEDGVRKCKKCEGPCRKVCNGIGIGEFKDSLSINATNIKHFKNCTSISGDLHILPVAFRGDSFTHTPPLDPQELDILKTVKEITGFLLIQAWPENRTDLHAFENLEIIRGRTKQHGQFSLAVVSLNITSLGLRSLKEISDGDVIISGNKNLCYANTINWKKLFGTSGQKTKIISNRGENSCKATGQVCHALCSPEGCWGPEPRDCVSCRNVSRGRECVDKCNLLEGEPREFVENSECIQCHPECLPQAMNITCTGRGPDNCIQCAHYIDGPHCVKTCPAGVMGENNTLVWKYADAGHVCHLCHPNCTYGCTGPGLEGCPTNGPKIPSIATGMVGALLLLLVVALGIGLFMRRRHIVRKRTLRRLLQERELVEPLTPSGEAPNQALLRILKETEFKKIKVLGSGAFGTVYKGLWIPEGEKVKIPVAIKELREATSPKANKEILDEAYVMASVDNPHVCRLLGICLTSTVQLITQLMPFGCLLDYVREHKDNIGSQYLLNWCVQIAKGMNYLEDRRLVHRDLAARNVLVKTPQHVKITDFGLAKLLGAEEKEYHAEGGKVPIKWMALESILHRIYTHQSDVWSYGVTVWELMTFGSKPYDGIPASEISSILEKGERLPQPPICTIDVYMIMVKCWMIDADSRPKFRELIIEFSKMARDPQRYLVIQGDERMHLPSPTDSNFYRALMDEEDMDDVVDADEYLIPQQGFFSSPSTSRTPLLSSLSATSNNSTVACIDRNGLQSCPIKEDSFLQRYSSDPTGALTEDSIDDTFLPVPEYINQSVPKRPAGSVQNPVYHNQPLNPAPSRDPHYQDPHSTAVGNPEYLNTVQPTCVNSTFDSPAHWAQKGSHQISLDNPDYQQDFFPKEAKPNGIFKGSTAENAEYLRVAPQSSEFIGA

`CN1CCN(c2ccc(Nc3ncc(F)c(Nc4ccc(Cl)cc4C(N)=O)n3)cc2)CC1` [SKLB-850, 5-chloro-2-((5-fluoro-2-((4-(4-methylpiperazin-1-yl)phenyl)amino)pyrimidin-4-yl)amino) benzamide] was tested, and the IC50 (EGRF) was 0.26 µM and 0.255 µM, the IC50 (FAK) was 0.39 µM and the IC50 (GRK1) was > 10 µM. For the same compound, the IC50 (GSK3β) was > 10 µM, the IC50 (JAK2) was 0.047 µM and the IC50 (PKBα) was 3.18 µM. The IC50 (PKCα) was > 10 µM, the IC50 (Pim-1) was > 10 µM and the IC50 (Pim-2) was > 10 µM. For the same compound, the IC50 (A549) was > 20 µM, the IC50 anti-viability (A549) was “did not exhibit activity” and the IC50 (CFPAC-1) was 7.24 µM. The IC50 anti-viability (H358; H358, Human non-small cell lung cancer cells) was “did not exhibit activity”, the IC50 (H358; NCI-H358, H358, Human non-small cell lung cancer cells) was > 20 µM and the IC50 (HBL-1) was 0.69 µM. For the same compound, the IC50 (HPAC) was > 20 µM, the IC50 anti-viability (HPAC) was “did not exhibit activity” and the IC50 (LY-10) was 0.9 µM. It also gave an IC50 (LY-1) of 1.6 µM, an IC50 (MCF-7) of 7.23 µM and an IC50 (MDA-MB-231) of 2.19 µM. The IC50 (RAJI) was 1.95 µM, the IC50 (Ramos-ZHL) was 0.03 µM and the IC50 (SMMC7721) was 2.2 µM. The IC50 (SW1990) was 2.19 µM, the IC50 (SuDHL-6) was 0.9 µM and the “CD20 expression (in words)” value [1] was “significant reduction”. For the same compound, the “Ki67 expression (in words)” value [1] was “significant reduction”.
